Reference: ChEMBL document CHEMBL2010766, “Bivalent Ligands for the Serotonin 5-HT3 Receptor” (ACS Med Chem Lett, 2011)

molecular target: T1, 5-hydroxytryptamine receptor 3A (Rattus norvegicus, UniProt P35563); assay: Displacement of [3H]granisetron from 5HT3 receptor in Wistar rat cortical membranes by liquid scintillation spectrometry; type: cell membranes, Membrane
T1 sequence (P35563 whole entry): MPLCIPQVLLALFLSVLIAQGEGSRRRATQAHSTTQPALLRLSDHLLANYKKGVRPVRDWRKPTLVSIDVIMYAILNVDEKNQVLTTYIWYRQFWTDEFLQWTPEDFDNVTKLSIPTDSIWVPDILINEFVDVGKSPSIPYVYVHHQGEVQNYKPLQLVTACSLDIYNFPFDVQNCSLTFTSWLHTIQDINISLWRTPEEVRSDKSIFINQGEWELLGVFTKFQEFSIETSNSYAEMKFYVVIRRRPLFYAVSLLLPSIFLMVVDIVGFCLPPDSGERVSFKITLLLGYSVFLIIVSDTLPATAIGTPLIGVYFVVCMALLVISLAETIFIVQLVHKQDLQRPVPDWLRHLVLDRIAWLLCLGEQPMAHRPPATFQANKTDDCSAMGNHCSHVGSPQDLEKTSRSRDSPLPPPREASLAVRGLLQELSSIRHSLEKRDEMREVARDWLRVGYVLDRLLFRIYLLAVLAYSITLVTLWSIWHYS

Compound | Ki [nM]
Cc1c(N2CCN(C)CC2)nc2ccccc2c1C(=O)NCCCCCCCNC(=O)OC(C)(C)C | 18
Cc1c(N2CCN(C)CC2)nc2ccccc2c1C(=O)NCCOCCOCCOCCOCCOCCOCCOCCOCCOCCNC(=O)NC[13C](=O)O | 154
Cc1c(N2CCN(C)CC2)nc2ccccc2c1C(=O)NCCOCCOCCOCCOCCOCCOCCOCCNC(=O)OC(C)(C)C | 89
Cc1c(N2CCN(C)CC2)nc2ccccc2c1C(=O)NCCCCCCCNC(=O)c1c(C)c(N2CCN(C)CC2)nc2ccccc12 | 2.7
Cc1c(N2CCN(C)CC2)nc2ccccc2c1C(=O)NCCCCCCCCNC(=O)c1c(C)c(N2CCN(C)CC2)nc2ccccc12 | 67
Cc1c(N2CCN(C)CC2)nc2ccccc2c1C(=O)NCCCCCCCNc1c2c(nc3ccccc13)CCCC2 | 5.6
Cc1c(N2CCN(C)CC2)nc2ccccc2c1C(=O)NCCOCCOCCNC(=O)OC(C)(C)C | 132
Cc1c(N2CCN(C)CC2)nc2ccccc2c1C(=O)NCCCCCCNc1c2c(nc3ccccc13)CCCC2 | 71
Cc1c(N2CCN(C)CC2)nc2ccccc2c1C(=O)NCCOCCOCCOCCOCCOCCOCCOCCOCCOCCNC(=O)OC(C)(C)C | 71
Cc1c(N2CCN(C)CC2)nc2ccccc2c1C(=O)NCCOCCOCCOCCOCCOCCOCCOCCNC(=O)NC[13C](=O)O | 106
Cc1c(N2CCN(C)CC2)nc2ccccc2c1C(=O)NCCCCCCCCNC(=O)OC(C)(C)C | 127
Cc1c(N2CCN(C)CC2)nc2ccccc2c1C(=O)NCCOCCOCCNC(=O)NC[13C](=O)O | 141
Cc1c(N2CCN(C)CC2)nc2ccccc2c1C(=O)NCCCCCCNC(=O)c1c(C)c(N2CCN(C)CC2)nc2ccccc12 | 28
Cc1c(N2CCN(C)CC2)nc2ccccc2c1C(=O)NCCCCCCCNC(=O)NC[13C](=O)O | 26
Cc1c(N2CCN(C)CC2)nc2ccccc2c1C(=O)NCCOCCOCCNC(=O)c1c(C)c(N2CCN(C)CC2)nc2ccccc12 | 7.7
Cc1c(N2CCN(C)CC2)nc2ccccc2c1C(=O)NCCCCCCNC(=O)OC(C)(C)C | 178
Cc1c(N2CCN(C)CC2)nc2ccccc2c1C(=O)NCCOCCOCCOCCOCCOCCOCCOCCOCCOCCNC(=O)c1c(C)c(N2CCN(C)CC2)nc2ccccc12 | 15
Cc1c(N2CCN(C)CC2)nc2ccccc2c1C(=O)NCCOCCOCCOCCOCCOCCOCCOCCNC(=O)c1c(C)c(N2CCN(C)CC2)nc2ccccc12 | 27
Cc1c(N2CCN(C)CC2)nc2ccccc2c1C(=O)NCCCCCCCCNc1c2c(nc3ccccc13)CCCC2 | 69
